In the supplement of paper PMC6965134:
± gives the standard deviation of the averaged measurements.

Assay: TIMS collisional cross section (CCS, N2) of the lipid ion; higher = larger ion cross section
Conditions: ionization mode: negative, one isomer drawn
Description: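 Lipid extracts of human plasma (NIST SRM 1950), mouse liver or HeLa cells were separated by nanoflow C18 LC (30 min gradient) and analysed by TIMS-PASEF on a timsTOF Pro. Ion mobility was calibrated with the Agilent tuning mix (negative mode ions) and converted to collisional cross sections (Mason–Schamp, N2).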

[1] = sample type: Human plasma, ion (formula + adduct): [C44H80NO7P+AcO] 1-
[2] = sample type: Human plasma, ion (formula + adduct): [C46H84NO7P-CH3] 1-
[3] = sample type: Mouse Liver, ion (formula + adduct): [C46H84NO7P-CH3] 1-
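Note: lipids from MTBE extraction, five replicate injections per sample, 100 ms TIMS ramp spanning 0.6–1.95 Vs/cm², lipid identity assigned from PASEF MS/MS spectra.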

CC/C=C\C/C=C\C/C=C\C/C=C\C/C=C\C/C=C\CCC(=O)O[C@H](COC(=O)CCCC/C=C\C/C=C\C/C=C\C/C=C\CC)COP(=O)([O-])OCC[N+](C)(C)C [PC 18:4@_22:6]
TIMS collisional cross section (sample type: Mouse Liver, ion (formula + adduct): [C48H76NO8P-CH3] 1-): 280 Å²

CCCCCCCCCCCCCCCCCCC(=O)OC[C@H](COP(=O)([O-])OCC[N+](C)(C)C)OC(C)=O [PC 19:0@_2:0]
TIMS collisional cross section (sample type: Human plasma, ion (formula + adduct): [C29H58NO8P-H] 1-): 244.4 Å²

CC/C=C\C/C=C\C/C=C\C/C=C\C/C=C\C/C=C\CCC(=O)O[C@H](COC(=O)CCCCCCCCCCCCCCCCCCC)COP(=O)([O-])OCC[N+](C)(C)C [PC 20:0@_22:6]
TIMS collisional cross section (sample type: Mouse Liver, ion (formula + adduct): [C50H88NO8P+HCOO] 1-): 308.5 Å²

CCCCC/C=C\C/C=C\C/C=C\C/C=C\CCCC(=O)O[C@H](COC(=O)CCCCCCCCCCCCCCCCCCC)COP(=O)([O-])OCC[N+](C)(C)C [PC 20:0_20:4]
TIMS collisional cross section (sample type: Mouse Liver, ion (formula + adduct): [C48H88NO8P+HCOO] 1-): 304.5 Å²

CC/C=C\C/C=C\C/C=C\C/C=C\C/C=C\C/C=C\CCC(=O)O[C@H](COC(=O)CCCCCCCCC/C=C\CCCCCCCC)COP(=O)([O-])OCC[N+](C)(C)C [PC 20:1_22:6@]
TIMS collisional cross section (sample type: Mouse Liver, ion (formula + adduct): [C50H86NO8P+HCOO] 1-): 306.7 Å²

CC/C=C\C/C=C\C/C=C\C/C=C\C/C=C\C/C=C\CCC(=O)O[C@H](COC(=O)CCCCCCCCC/C=C\C/C=C\CCCCC)COP(=O)([O-])OCC[N+](C)(C)C [PC 20:2@_22:6]
TIMS collisional cross section (sample type: Mouse Liver, ion (formula + adduct): [C50H84NO8P+HCOO] 1-): 303.9 Å²

CC/C=C\C/C=C\C/C=C\C/C=C\C/C=C\C/C=C\CCC(=O)O[C@H](COC(=O)CCC/C=C\C/C=C\C/C=C\C/C=C\C/C=C\CC)COP(=O)([O-])OCC[N+](C)(C)C [PC 20:5_22:6]
TIMS collisional cross section (sample type: Mouse Liver, ion (formula + adduct): [C50H78NO8P+HCOO] 1-): 300.4 Å²

CC/C=C\C/C=C\C/C=C\C/C=C\C/C=C\C/C=C\CCC(=O)OC[C@H](COP(=O)([O-])OCC[N+](C)(C)C)OC(=O)CC/C=C\C/C=C\C/C=C\C/C=C\C/C=C\C/C=C\CC [PC 22:6_22:6]
TIMS collisional cross section (sample type: Mouse Liver, ion (formula + adduct): [C52H80NO8P+HCOO] 1-): 304.9 Å²

CCCCCCCCCCCCCCCCCC(=O)O[C@H](COCCCCCCCCCCCCCC)COP(=O)([O-])OCC[N+](C)(C)C [PC O- 14:0@_18:0]
TIMS collisional cross section (sample type: Mouse Liver, ion (formula + adduct): [C40H82NO7P+HCOO] 1-): 287.2 Å²

CCCCCCCC/C=C\CCCCCCCC(=O)O[C@H](COCCCCCCCCCCCCCC)COP(=O)([O-])OCC[N+](C)(C)C [PC O- 14:0@_18:1]
TIMS collisional cross section (sample type: Human plasma, ion (formula + adduct): [C40H80NO7P+HCOO] 1-): 286.1 Å²

CCCCC/C=C\C/C=C\CCCCCCCC(=O)O[C@H](COCCCCCCCCCCCCCC)COP(=O)([O-])OCC[N+](C)(C)C [PC O- 14:0@_18:2]
TIMS collisional cross section (sample type: Human plasma, ion (formula + adduct): [C40H78NO7P-CH3] 1-): 265.6 Å²

CCCCC/C=C\C/C=C\C/C=C\C/C=C\CCCC(=O)O[C@H](COCCCCCCCCCCCCCC)COP(=O)([O-])OCC[N+](C)(C)C [PC O- 14:0@_20:4]
TIMS collisional cross section (sample type: Human plasma, ion (formula + adduct): [C42H78NO7P-CH3] 1-): 270.6 Å²

CCCCC/C=C\C/C=C\C/C=C\C/C=C\CCCC(=O)O[C@H](COCCCCCCCCCCCCCCC)COP(=O)([O-])OCC[N+](C)(C)C [PC O- 15:0@_20:4]
TIMS collisional cross section (sample type: Human plasma, ion (formula + adduct): [C43H80NO7P-H] 1-): 276.3 Å²

CCCCCCCCCCCCCCCCOC[C@H](COP(=O)([O-])OCC[N+](C)(C)C)OC(=O)CCCCCCCCCCCCC [PC O- 16:0@_14:0]
TIMS collisional cross section (sample type: Human plasma, ion (formula + adduct): [C38H78NO7P+HCOO] 1-): 282.2 Å²

CCCCC/C=C\C/C=C\CCCCCCCC(=O)O[C@H](COCCCCCCCCCCCCCCCC)COP(=O)([O-])OCC[N+](C)(C)C [PC O- 16:0@_18:2]
TIMS collisional cross section (sample type: Human plasma, ion (formula + adduct): [C42H82NO7P+HCOO] 1-): 288.8 Å²
TIMS collisional cross section (sample type: Human plasma, ion (formula + adduct): [C42H82NO7P-CH3] 1-): 271.8 Å²
TIMS collisional cross section (sample type: Mouse Liver, ion (formula + adduct): [C42H82NO7P+HCOO] 1-): 290 Å²

CCCCCCCCCC/C=C\CCCCCCCC(=O)O[C@H](COCCCCCCCCCCCCCCCC)COP(=O)([O-])OCC[N+](C)(C)C [PC O- 16:0@_20:1]
TIMS collisional cross section (sample type: Mouse Liver, ion (formula + adduct): [C44H88NO7P-CH3] 1-): 279.7 Å²

CCCCC/C=C\C/C=C\C/C=C\C/C=C\CCCC(=O)O[C@H](COCCCCCCCCCCCCCCCC)COP(=O)([O-])OCC[N+](C)(C)C [PC O- 16:0@_20:4]
TIMS collisional cross section (sample type: Human plasma, ion (formula + adduct): [C44H82NO7P+AcO] 1-): 299.9 Å²
TIMS collisional cross section (sample type: Human plasma, ion (formula + adduct): [C44H82NO7P+HCOO] 1-): 293.3 Å²
TIMS collisional cross section (sample type: Mouse Liver, ion (formula + adduct): [C44H82NO7P+HCOO] 1-): 292.7 Å²

CC/C=C\C/C=C\C/C=C\C/C=C\C/C=C\CCCC(=O)O[C@H](COCCCCCCCCCCCCCCCC)COP(=O)([O-])OCC[N+](C)(C)C [PC O- 16:0@_20:5]
TIMS collisional cross section [1]: 298.5 Å²

CC/C=C\C/C=C\C/C=C\C/C=C\C/C=C\CCCCCC(=O)OC(COCCCCCCCCCCCCCCCC)COP(=O)([O-])OCC[N+](C)(C)C (centres undefined) [PC O- 16:0@_22:5]
TIMS collisional cross section [2]: 281.3 Å²
TIMS collisional cross section [3]: 280.2 Å²

CC/C=C\C/C=C\C/C=C\C/C=C\C/C=C\C/C=C\CCC(=O)O[C@H](COCCCCCCCCCCCCCCCC)COP(=O)([O-])OCC[N+](C)(C)C [PC O- 16:0@_22:6]
TIMS collisional cross section (sample type: Human plasma, ion (formula + adduct): [C46H82NO7P+HCOO] 1-): 298.4 Å²
TIMS collisional cross section (sample type: Mouse Liver, ion (formula + adduct): [C46H82NO7P+HCOO] 1-): 296.7 Å²

CCCCCCCCCCCCCCCCOC[C@H](COP(=O)([O-])OCC[N+](C)(C)C)OC(=O)CCCCCCCCCCCCCCC [PC O- 16:0_16:0]
TIMS collisional cross section (sample type: Human plasma, ion (formula + adduct): [C40H82NO7P+HCOO] 1-): 287.8 Å²

CCCCC/C=C\C/C=C\CCCCCCCC(=O)O[C@H](COCCCCCCCC/C=C\CCCCCC)COP(=O)([O-])OCC[N+](C)(C)C [PC O- 16:1@_18:2]
TIMS collisional cross section (sample type: Human plasma, ion (formula + adduct): [C42H80NO7P-CH3] 1-): 272.4 Å²
TIMS collisional cross section (sample type: Mouse Liver, ion (formula + adduct): [C42H80NO7P-CH3] 1-): 272.4 Å²

CC/C=C\C/C=C\C/C=C\C/C=C\CCCCCCC(=O)O[C@H](COCCCCCCCC/C=C\CCCCCC)COP(=O)([O-])OCC[N+](C)(C)C [PC O- 16:1@_20:4]
TIMS collisional cross section [1]: 296.2 Å²
TIMS collisional cross section (sample type: Human plasma, ion (formula + adduct): [C44H80NO7P-H] 1-): 278.5 Å²
TIMS collisional cross section (sample type: Mouse Liver, ion (formula + adduct): [C44H80NO7P+HCOO] 1-): 292.2 Å²
TIMS collisional cross section (sample type: Mouse Liver, ion (formula + adduct): [C44H80NO7P-CH3] 1-): 275.7 Å²

CC/C=C\C/C=C\C/C=C\C/C=C\CCCCCCC(=O)O[C@H](COCCCCCCCC/C=C\CCCCCC)COP(=O)([O-])OCC[N+](C)(C)C [PC O- 16:1_20:4]
TIMS collisional cross section (sample type: Human plasma, ion (formula + adduct): [C44H80NO7P+HCOO] 1-): 292.2 Å²

CCCCCCCCCCCCCCCCCCOC[C@H](COP(=O)([O-])OCC[N+](C)(C)C)OC(=O)CCCCCCCCCCCCCCC [PC O- 18:0@_16:0]
TIMS collisional cross section (sample type: Human plasma, ion (formula + adduct): [C42H86NO7P+HCOO] 1-): 293.5 Å²

CCCCC/C=C\C/C=C\CCCCCCCC(=O)O[C@H](COCCCCCCCCCCCCCCCCCC)COP(=O)([O-])OCC[N+](C)(C)C [PC O- 18:0@_18:2]
TIMS collisional cross section (sample type: Mouse Liver, ion (formula + adduct): [C44H86NO7P-CH3] 1-): 276.8 Å²

CCCCC/C=C\C/C=C\C/C=C\C/C=C\CCCC(=O)O[C@H](COCCCCCCCCCCCCCCCCCC)COP(=O)([O-])OCC[N+](C)(C)C [PC O- 18:0@_20:4]
TIMS collisional cross section (sample type: Human plasma, ion (formula + adduct): [C46H86NO7P+HCOO] 1-): 299 Å²

CC/C=C\C/C=C\C/C=C\C/C=C\C/C=C\C/C=C\CCC(=O)O[C@H](COCCCCCCCCCCCCCCCCCC)COP(=O)([O-])OCC[N+](C)(C)C [PC O- 18:0@_22:6]
TIMS collisional cross section (sample type: Human plasma, ion (formula + adduct): [C48H86NO7P+HCOO] 1-): 303.2 Å²

CCCCCCCC/C=C\CCCCCCCCOC[C@H](COP(=O)([O-])OCC[N+](C)(C)C)OC(=O)CCCCCCCCCCCCCCC [PC O- 18:1@_16:0]
TIMS collisional cross section (sample type: Human plasma, ion (formula + adduct): [C42H84NO7P+HCOO] 1-): 291.1 Å²

CCCCC/C=C\C/C=C\C/C=C\C/C=C\CCCC(=O)O[C@H](COCCCCCCCC/C=C\CCCCCCCC)COP(=O)([O-])OCC[N+](C)(C)C [PC O- 18:1@_20:4]
TIMS collisional cross section (sample type: Human plasma, ion (formula + adduct): [C46H84NO7P+HCOO] 1-): 297.5 ± 0.42 Å²
TIMS collisional cross section [2]: 282.5 Å²
TIMS collisional cross section (sample type: Mouse Liver, ion (formula + adduct): [C46H84NO7P+HCOO] 1-): 296.1 Å²
TIMS collisional cross section [3]: 282.5 Å²

CC/C=C\C/C=C\C/C=C\C/C=C\CCCCCCC(=O)O[C@H](COCCCCCCCCCC/C=C\CCCCCCCC)COP(=O)([O-])OCC[N+](C)(C)C [PC O- 20:1@_20:4]
TIMS collisional cross section (sample type: Human plasma, ion (formula + adduct): [C48H88NO7P+HCOO] 1-): 302.3 Å²
